This experiment deals with T1, Induced myeloid leukemia cell differentiation protein Mcl-1 [172-327] (Homo sapiens, UniProt Q07820).
T1 construct: 172-327
In words: ITC experiments. The conditions noted are these: pH 8; 25 °C. How it is done: ITC experiments were carried out using iTC200 (Microcal LLC, Northampton, MA, USA) with each of the compounds 1-6 and Mcl-1 protein. The heat of reaction was obtained by making 16 injections (2.4 µL each) of the ligand (final concentration in the syringe of 200 µM in 50 mM Tris, 150 mM NaCl, and 5% DMSO, pH 8.0) into the reaction cell that contained Mcl-1 in the same buffer (final protein concentration of 20 µM). The experiments were done at 25°C and at a stirring speed of 500 rpm. For the control experiment, the sample cell was filled with the assay buffer and the compound solution was added, respectively.

T1 sequence (Q07820 172-327): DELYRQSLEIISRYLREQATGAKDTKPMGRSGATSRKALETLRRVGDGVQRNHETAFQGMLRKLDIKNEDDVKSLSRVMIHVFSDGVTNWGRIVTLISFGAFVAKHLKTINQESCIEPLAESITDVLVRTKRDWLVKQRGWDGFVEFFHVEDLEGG

Regarding `Cc1ccc(Sc2ccc3c(c2)C(=O)c2cc(O)c(O)cc2C3=O)cc1`, the equilibrium dissociation constant (Kd) amounted to 950 nM.
In the case of `O=C1c2ccc(Sc3ccccc3)cc2C(=O)c2cc(O)c(O)cc21` it was 1470 nM.
`CC(C)c1ccc(Sc2ccc3c(c2)C(=O)c2cc(O)c(O)cc2C3=O)cc1` had an equilibrium dissociation constant (Kd) of 238 nM.
Compound `O=C1c2ccc(Br)cc2C(=O)c2cc(O)c(O)cc21` came in with an equilibrium dissociation constant (Kd) of 1840 nM.
Regarding `O=C1c2ccccc2C(=O)c2cc(O)c(O)cc21`, the Kd came out at 1850 nM. The Kd values of the last two compounds are within 1.5-fold of each other.

The values above are taken from BindingDB's records for doi:10.1111/cbdd.12161 (Dalian University of Technology, 2013).
